Data: ChEMBL document CHEMBL4330100, “Selective estrogen receptor degraders with novel structural motifs induce regression in a tamoxifen-resistant breast cancer xenograft” (Bioorg Med Chem Lett, 2019)

How the values were obtained:
[1] = target: T1, Estrogen receptor (Homo sapiens) (UniProt P03372); assay: Induction of ERalpha degradation in human MCF7 cells in phenol red free RPMI medium containing 5% charcoal-stripped FBS incubated for 4 hrs by IRDye 800CW/DRAQ5 dye based in-cell Western assay relative to fulvestrant
T1 sequence (whole entry): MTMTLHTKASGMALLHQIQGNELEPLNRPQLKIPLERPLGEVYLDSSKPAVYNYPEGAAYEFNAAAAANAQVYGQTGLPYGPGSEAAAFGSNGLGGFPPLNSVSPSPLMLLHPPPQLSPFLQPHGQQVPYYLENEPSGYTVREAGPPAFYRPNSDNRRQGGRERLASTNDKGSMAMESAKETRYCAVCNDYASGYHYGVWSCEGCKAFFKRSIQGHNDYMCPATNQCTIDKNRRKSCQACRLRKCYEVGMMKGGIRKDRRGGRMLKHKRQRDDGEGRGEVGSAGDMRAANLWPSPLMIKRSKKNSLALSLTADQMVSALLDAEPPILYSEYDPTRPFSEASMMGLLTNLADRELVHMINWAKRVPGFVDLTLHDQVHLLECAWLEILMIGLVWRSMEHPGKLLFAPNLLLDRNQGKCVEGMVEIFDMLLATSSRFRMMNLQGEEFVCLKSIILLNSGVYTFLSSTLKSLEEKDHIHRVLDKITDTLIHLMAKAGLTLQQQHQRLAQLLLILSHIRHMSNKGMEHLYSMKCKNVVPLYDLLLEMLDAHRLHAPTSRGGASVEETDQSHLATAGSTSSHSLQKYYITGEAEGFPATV

MCF7 = assay: Antiproliferative activity against human MCF7 cells assessed as reduction in cell proliferation measured after 5 days by Cell-titer-Glo assay; type: functional, cell-based; conditions: MCF7, 120 h
Estrogen receptor = target: T2, Estrogen receptor (Homo sapiens, UniProt P03372); assay: Induction of ERalpha degradation in human MCF7 cells in phenol red free RPMI medium containing 5% charcoal-stripped FBS incubated for 4 hrs by IRDye 800CW/DRAQ5 dye based in-cell Western assay
T2 sequence (P03372 whole entry): T1 sequence (whole entry)

Rattus norvegicus [2] = assay: In vivo antagonist activity at estrogen receptor in CD-IGS rat assessed as inhibition of estrogen-stimulated uterine growth at 1 mg/kg, po administered daily 15 mins before estrogen treatment for 3 days and measured 24 hrs post last dose relative to ARN-180; type: functional
[3] = target: T1, Estrogen receptor (Homo sapiens); assay: Induction of ERalpha degradation in human MCF7 cells in phenol red free RPMI medium containing 5% charcoal-stripped FBS at 2 to 10 uM incubated for 4 hrs by IRDye 800CW/DRAQ5 dye based in-cell Western assay relative to fulvestrant
Rattus norvegicus [4] = assay: In vivo antagonist activity at estrogen receptor in CD-IGS rat assessed as reduction in 17alpha-ethynylestradiol-stimulated increase in uterine wet weight at 1 mg/kg, po administered daily 15 mins before 17alpha-ethynylestradiol treatment for 3 days and measured 24 hrs post last dose relative to basal level; type: functional

Efficacy [1] [%]	IC50 (MCF7) [µM]	EC50 (Estrogen receptor) [µM]	Efficacy [3] [%]	SMILES	Efficacy (Rattus norvegicus [2]) [%]	Efficacy (Rattus norvegicus [4]) [%]
93	0.016	0.0048		O=C(O)/C=C/c1ccc(/C(=C(\c2ccc(C(F)(F)F)cc2Cl)C2CCC2)c2ccc(-c3cn[nH]c3)cc2)cc1		
91	0.094	0.05		CC/C(=C(/c1ccc(/C=C/C(=O)O)cc1)c1ccc(N2CCOCC2)cc1)c1ccccc1		
	0.003	0.0007		O=C(O)/C=C/c1ccc(/C(=C(\c2ccc(F)cc2Cl)C2CCC2)c2ccc3scnc3c2)cc1	91	
	> 0.5	> 0.5		CC/C(=C(/c1ccc(/C=C/C(=O)O)cc1)c1ccc2nnnn2c1)c1ccccc1		
	0.0042	0.0008		O=C(O)/C=C/c1ccc(/C(=C(\c2ccc(F)cc2Cl)C2CCC2)c2ccc(-c3cncs3)cc2)cc1	91	
91	0.04	0.012		CC/C(=C(/c1ccc(/C=C/C(=O)O)cc1)c1ccc(-c2cn[nH]c2)cc1)c1ccccc1		
	0.0014	0.0008		N#Cc1ccc(/C(=C(\c2ccc(/C=C/C(=O)O)cc2)c2ccc3scnc3c2)C2CCC2)c(Cl)c1	92	
	> 0.5	0.2	90	CC/C(=C(/c1ccc(/C=C/C(=O)O)cc1)c1ccc2sncc2c1)c1ccccc1		
93	0.0059	0.0043		N#Cc1cc(Cl)ccc1/C(=C(\c1ccc(/C=C/C(=O)O)cc1)c1ccc2nccn2c1)C1CCC1		
	0.005	0.0016		O=C(O)/C=C/c1ccc(/C(=C(\c2ccc(F)cc2Cl)C2CCC2)c2ccc(N3CCOCC3)cc2)cc1	90	
90	0.031	0.0074		CC/C(=C(/c1ccc(/C=C/C(=O)O)cc1)c1ccc(-c2cncs2)cc1)c1ccccc1		
89	0.12	0.028		CC/C(=C(/c1ccc(/C=C/C(=O)O)cc1)c1ccc(-c2cnsc2)cc1)c1ccccc1		
	0.0044	0.0015		O=C(O)/C=C/c1ccc(/C(=C(\c2ccc(F)cc2Cl)C2CCC2)c2ccc3nccn3c2)cc1		90
	0.38	0.3	89	CC/C(=C(/c1ccc(/C=C/C(=O)O)cc1)c1ccc(-n2ccnc2)cc1)c1ccccc1		
92	0.02	0.0041		O=C(O)/C=C/c1ccc(/C(=C(\c2ncc(C(F)(F)F)cc2Cl)C2CCC2)c2ccc(N3CCOCC3)cc2)cc1		
	0.18	0.057	91	CC/C(=C(/c1ccc(/C=C/C(=O)O)cc1)c1ccc2ccccc2c1)c1ccccc1		
			85	CC/C(=C(\c1ccccc1)c1ccc(/C=C/C(=O)O)cc1)c1ccccc1		
92	0.08	0.015		CC/C(=C(/c1ccc(/C=C/C(=O)O)cc1)c1ccc(-c2cnn(C)c2)cc1)c1ccccc1		
92	0.0075	0.0042		N#Cc1ccc(/C(=C(\c2ccc(/C=C/C(=O)O)cc2)c2ccc(N3CCOCC3)cc2)C2CCC2)c(Cl)c1		
	0.17	0.075	86	CC/C(=C(/c1ccc(/C=C/C(=O)O)cc1)c1ccc2nccn2c1)c1ccccc1		
	0.45	0.19	90	CC/C(=C(/c1ccc(/C=C/C(=O)O)cc1)c1ccc(N2CCCCC2)cc1)c1ccccc1		
	0.44	0.099	86	CC/C(=C(/c1ccc(/C=C/C(=O)O)cc1)c1ccc(-c2cc[nH]n2)cc1)c1ccccc1		
93	0.0073	0.0014		O=C(O)/C=C/c1ccc(/C(=C(\c2ncc(C(F)(F)F)cc2Cl)C2CCC2)c2ccc(-c3cncs3)cc2)cc1		
86	0.081	0.027		CC/C(=C(/c1ccc(/C=C/C(=O)O)cc1)c1ccc2c(cnn2C)c1)c1ccc(F)cc1Cl		
	0.29	0.083	91	CC/C(=C(/c1ccc(/C=C/C(=O)O)cc1)c1ccc(-c2nccs2)cc1)c1ccccc1		
	0.0043	0.0019		N#Cc1cc(Cl)ccc1/C(=C(\c1ccc(/C=C/C(=O)O)cc1)c1ccc(-c2cncs2)cc1)C1CCC1		94

Efficacy [1] [%]	IC50 (MCF7) [µM]	EC50 (Estrogen receptor) [µM]	Efficacy [3] [%]	SMILES	Efficacy (Rattus norvegicus [2]) [%]	Efficacy (Rattus norvegicus [4]) [%]
	0.22	0.09	85	CC/C(=C(/c1ccc(/C=C/C(=O)O)cc1)c1ccc(N2CCN(C)CC2)cc1)c1ccccc1		
	0.0046			CC/C(=C(\c1ccc(O)cc1)c1ccc(/C=C/C(=O)O)cc1)c1ccccc1		
94	0.0029	0.0018		N#Cc1ccc(/C(=C(\c2ccc(/C=C/C(=O)O)cc2)c2ccc(-c3cncs3)cc2)C2CCC2)c(Cl)c1		
	0.0022	0.0007		N#Cc1ccc(/C(=C(\c2ccc(/C=C/C(=O)O)cc2)c2ccc(-c3cn[nH]c3)cc2)C2CCC2)c(Cl)c1		94
	0.0029	0.0011		O=C(O)/C=C/c1ccc(/C(=C(\c2ccc(F)cc2Cl)C2CCC2)c2ccc(-c3cn[nH]c3)cc2)cc1	91	
89	0.09	0.022		CC/C(=C(/c1ccc(/C=C/C(=O)O)cc1)c1ccc2scnc2c1)c1ccccc1		
	> 0.5	0.35	90	CC/C(=C(/c1ccc(/C=C/C(=O)O)cc1)c1ccn2nccc2c1)c1ccccc1		
94	0.0051	0.0015		O=C(O)/C=C/c1ccc(/C(=C(\c2ccc(C(F)(F)F)cc2Cl)C2CCC2)c2ccc3nccn3c2)cc1		
93	0.016	0.0028		O=C(O)/C=C/c1ccc(/C(=C(\c2ncc(C(F)(F)F)cc2Cl)C2CCC2)c2ccc(-c3cn[nH]c3)cc2)cc1		
	0.0092	0.0017		O=C(O)/C=C/c1ccc(/C(=C(\c2ccccc2)C2CCC2)c2ccc(-c3cncs3)cc2)cc1		89
	0.0009	0.0004		N#Cc1cc(Cl)ccc1/C(=C(\c1ccc(/C=C/C(=O)O)cc1)c1ccc2scnc2c1)C1CCC1	91	
	> 0.5	0.26	86	CC/C(=C(/c1ccc(/C=C/C(=O)O)cc1)c1ccc2cncn2c1)c1ccccc1		
	0.3	0.14	84	CC/C(=C(/c1ccc(/C=C/C(=O)O)cc1)c1ccc2c(cnn2C)c1)c1ccccc1		
88	0.016	0.0059		O=C(O)/C=C/c1ccc(/C(=C(\c2ccccc2)C2CCC2)c2ccc3scnc3c2)cc1		
	> 0.5	0.15	88	CC/C(=C(/c1ccc(/C=C/C(=O)O)cc1)c1ccc2sc(C)nc2c1)c1ccccc1		
	0.0029	0.0011		O=C(O)/C=C/c1ccc(/C(=C(\c2ncc(C(F)(F)F)cc2Cl)C2CCC2)c2ccc3scnc3c2)cc1	92	
	> 0.5	> 0.5		CC/C(=C(/c1ccc(/C=C/C(=O)O)cc1)c1ccn2ccnc2c1)c1ccccc1		
	> 0.5	0.24	86	CC/C(=C(/c1ccc(/C=C/C(=O)O)cc1)c1ccc2ncsc2c1)c1ccccc1		
	> 0.5	0.46	86	CC/C(=C(/c1ccc(/C=C/C(=O)O)cc1)c1ccc2ocnc2c1)c1ccccc1		
	> 0.5	0.34	86	CC/C(=C(/c1ccc(/C=C/C(=O)O)cc1)c1ccn2nncc2c1)c1ccccc1		
90	0.011	0.0021		O=C(O)/C=C/c1ccc(/C(=C(\c2ccccc2)C2CCC2)c2ccc(-c3cn[nH]c3)cc2)cc1		
92	0.051	0.017		CC/C(=C(/c1ccc(/C=C/C(=O)O)cc1)c1ccc(-c2cnco2)cc1)c1ccccc1		
	> 0.5	> 0.5		CC/C(=C(/c1ccc(/C=C/C(=O)O)cc1)c1ccc2nncn2c1)c1ccccc1		
90	0.12	0.037		CC/C(=C(/c1ccc(/C=C/C(=O)O)cc1)c1ccc(-c2cscn2)cc1)c1ccccc1		
92	0.012	0.005		N#Cc1cc(Cl)ccc1/C(=C(\c1ccc(/C=C/C(=O)O)cc1)c1ccc(N2CCOCC2)cc1)C1CCC1		
93	0.015	0.019		N#Cc1ccc(/C(=C(\c2ccc(/C=C/C(=O)O)cc2)c2ccc3nccn3c2)C2CCC2)c(Cl)c1		
